{"source": "patent US4795808A", "about": "“Anthracycline tetrasaccharides” (Hoechst Aktiengesellschaft, priority 1985, dated 1989)", "tested_on": "L1210 leukemia cells", "experiment": "cell proliferation test on L1210 leukemia cells (C14-thymidine incorporation)", "type": "cell-based", "conditions": "Mus musculus, 72 hours, 37° C., 5% of CO2, concentration which reduces incorporation of radioactive thymidine by 50% vs control", "method": "The inhibiting action was determined (cell proliferation test) as described below:\n[…] cells in the exponential growth phase (5×10^3 /ml in RPMI 1640) are incubated in a microtiter plate with different concentrations of the test substance for 72 hours (37° C., 5% of CO2, 95% relative atmospheric humidity). Controls comprise cells incubated only with fresh medium. All the determinations are carried out as 4-fold determinations. After 65 hours, 50 μl of C14-thymidine (1.5 μC/ml) are added in order to radiolabel the cell DNA. After incubation for 7 hours, the cells are filtered off with suction and the DNA is precipitated with 5% strength trichloroacetic acid and washed with water and methanol in succession. After drying at 50° C., the radioactivity incorporated into the DNA is determined after addition of 5 ml of scintillation liquid. The results are stated as ratios of the scintillation index after incubation with the test substance in percent of the untreated control. From the measurement values thus obtained, the dose/effect curve is determined, and the IC50, that is to say the concentration which reduces the incorporation of radioactive thymidine by 50% under test conditions in comparison with the control, is determined graphically."}
{"smiles": "CCC1(O)CC(OC2CC(N(C)C)C(OC3CCC(OC4C=CC(=O)C(C)O4)C(C)O3)C(C)O2)c2c(O)c3c(c(O)c2C1OC1CC(N(C)C)C(O)C(C)O1)C(=O)c1cccc(O)c1C3=O", "note": "(stereo not shown) [cytorhodin SE gluconate]", "values": [{"measurement": "IC50", "value": 6, "unit": "ng/mL"}]}
